{"source": "patent US8802597B2", "about": "“Herbicidal pyrimidines” (E I du Pont de Nemours and Company, priority 2003, dated 2014)", "format_in_all_cases": "in vivo", "key": {"[1]": {"system": "Surinam grass (Brachiaria decumbens)", "experiment": "Test C pre/postemergence", "details": "Urochloa decumbens, post-emergence, Postemergence", "from_the_text": "(§1) Seeds or nutlets of plant species selected from bermudagrass (Cynodon dactylon), Surinam grass (Brachiaria decumbens), cocklebur (Xanthium strumarium), corn (Zea mays), crabgrass (Digitaria sanguinalis), woolly cupgrass (Eriochloa villosa), giant foxtail (Setaria faberii), goosegrass (Eleusine indica), johnsongrass (Sorghum halepense), kochia (Kochia scoparia), lambsquarters (Chenopodium album), morningglory (Ipomoea coccinea), eastern black nightshade (Solanum ptycanthum), yellow nutsedge (Cyperus esculentus), pigweed (Amaranthus retroflexus), common ragweed (Ambrosia elatior), soybean (Glycine max), common (oilseed) sunflower (Helianthus annuus), and velvetleaf (Abutilon theophrasti) were planted and treated preemergence with test chemicals formulated in a non-phytotoxic solvent mixture which included a surfactant.\n(§2) At the same time, plants selected from these crop and weed species and also winter barley (Hordeum vulgare), blackgrass (Alopecurus myosuroides), canarygrass (Phalaris minor), chickweed (Stellaria media), downy brome (Bromus tectorum), green foxtail (Setaria viridis), Italian ryegrass (Lolium multiflorum), wheat (Triticum aestivum), wild oat (Avena fatua) and windgrass (Apera spica-venti) were treated with postemergence applications of some of the test chemicals formulated in the same manner. Plants ranged in height from 2 to 18 cm (1- to 4-leaf stage) for postemergence treatments. Plant species in the flooded paddy test consisted of rice (Oryza sativa), umbrella sedge (Cyperus difformis), duck salad (Heteranthera limosa) and barnyardgrass (Echinochloa crus-galli) grown to the 2-leaf stage for testing. Treated plants and controls were maintained in a greenhouse for 12 to 14 days, after which time all species were compared to controls and visually evaluated. Plant response ratings, summarized in Table C, are based on a scale of 0 to 100 where 0 is no effect and 100 is complete control. A dash (-) response means no test result."}, "[2]": {"system": "common ragweed (Ambrosia elatior)", "experiment": "Test C pre/postemergence", "details": "Ambrosia artemisiifolia, post-emergence, Postemergence", "from_the_text": "as §1, §2"}, "[3]": {"system": "giant foxtail (Setaria faberii)", "experiment": "Test C pre/postemergence", "details": "Setaria faberi, post-emergence, Postemergence", "from_the_text": "as §1, §2"}, "[4]": {"system": "johnsongrass (Sorghum halepense)", "experiment": "Test C pre/postemergence", "details": "Sorghum halepense, post-emergence, Postemergence", "from_the_text": "as §1, §2"}, "[5]": {"system": "kochia (Kochia scoparia)", "experiment": "Test C pre/postemergence", "details": "Bassia scoparia, post-emergence, Postemergence", "from_the_text": "as §1, §2"}, "[6]": {"system": "morningglory (Ipomoea coccinea)", "experiment": "Test C pre/postemergence", "details": "Ipomoea, post-emergence, Postemergence", "from_the_text": "as §1, §2"}, "[7]": {"system": "pigweed (Amaranthus retroflexus)", "experiment": "Test C pre/postemergence", "details": "Amaranthus retroflexus, post-emergence, Postemergence", "from_the_text": "as §1, §2"}, "[8]": {"system": "soybean (Glycine max)", "experiment": "Test C pre/postemergence", "details": "Glycine max, post-emergence, Postemergence", "from_the_text": "as §1, §2"}, "[9]": {"system": "woolly cupgrass (Eriochloa villosa)", "experiment": "Test C pre/postemergence", "details": "Eriochloa villosa, post-emergence, Postemergence", "from_the_text": "as §1, §2"}, "[10]": {"system": "yellow nutsedge (Cyperus esculentus)", "experiment": "Test C pre/postemergence", "details": "Cyperus, post-emergence, Postemergence", "from_the_text": "as §1, §2"}, "[11]": {"system": "chickweed (Stellaria media)", "experiment": "Test C postemergence", "details": "Stellaria media, post-emergence", "from_the_text": "as §1, §2"}}}
{"compound": "CCOC(=O)c1nc(C2CC2)nc(NN)c1Br", "note": "[Compound 42]", "values": [{"measurement": "pest or weed control at 125 g/ha", "setting": "[1]; 125 g ai/ha, scale 0 to 100 (0 no effect, 100 complete control), read-out: Surinam Grass plant response rating", "value": 0, "unit": "%"}, {"measurement": "pest or weed control at 31 g/ha", "setting": "[1]; 31 g ai/ha, read-out: Plant response rating (scale of 0 to 100), Surinam Grass", "value": 0, "unit": "%"}, {"measurement": "pest or weed control at 62 g/ha", "setting": "[1]; 62 g ai/ha, scale 0 to 100 (0 no effect, 100 complete control), read-out: Surinam Grass plant response rating", "value": 0, "unit": "%"}, {"measurement": "pest or weed control at 250 g/ha", "setting": "[1]; 250 g ai/ha, scale 0 to 100, read-out: Plant response rating, Surinam Grass", "value": 0, "unit": "%"}, {"measurement": "pest or weed control at 31 g/ha", "setting": "[2]; 31 g ai/ha, read-out: Plant response rating (scale of 0 to 100), Ragweed", "value": 0, "unit": "%"}, {"measurement": "pest or weed control at 62 g/ha", "setting": "[2]; 62 g ai/ha, scale 0 to 100 (0 no effect, 100 complete control), read-out: Ragweed plant response rating", "value": 10, "unit": "%"}, {"measurement": "pest or weed control at 125 g/ha", "setting": "[2]; 125 g ai/ha, scale 0 to 100 (0 no effect, 100 complete control), read-out: Ragweed plant response rating", "value": 40, "unit": "%"}, {"measurement": "pest or weed control at 250 g/ha", "setting": "[2]; 250 g ai/ha, scale 0 to 100, read-out: Plant response rating, Ragweed", "value": 40, "unit": "%"}, {"measurement": "pest or weed control at 125 g/ha", "setting": "[3]; 125 g ai/ha, scale 0 to 100 (0 no effect, 100 complete control), read-out: Foxtail, Giant plant response rating", "value": 0, "unit": "%"}, {"measurement": "pest or weed control at 31 g/ha", "setting": "[3]; 31 g ai/ha, read-out: Plant response rating (scale of 0 to 100), Foxtail, Giant", "value": 0, "unit": "%"}, {"measurement": "pest or weed control at 62 g/ha", "setting": "[3]; 62 g ai/ha, scale 0 to 100 (0 no effect, 100 complete control), read-out: Foxtail, Giant plant response rating", "value": 0, "unit": "%"}, {"measurement": "pest or weed control at 250 g/ha", "setting": "[3]; 250 g ai/ha, scale 0 to 100, read-out: Plant response rating, Foxtail, Giant", "value": 0, "unit": "%"}, {"measurement": "pest or weed control at 31 g/ha", "setting": "[4]; 31 g ai/ha, read-out: Plant response rating (scale of 0 to 100), Johnsongrass", "value": 0, "unit": "%"}, {"measurement": "pest or weed control at 62 g/ha", "setting": "[4]; 62 g ai/ha, scale 0 to 100 (0 no effect, 100 complete control), read-out: Johnsongrass plant response rating", "value": 0, "unit": "%"}, {"measurement": "pest or weed control at 125 g/ha", "setting": "[4]; 125 g ai/ha, scale 0 to 100 (0 no effect, 100 complete control), read-out: Johnsongrass plant response rating", "value": 0, "unit": "%"}, {"measurement": "pest or weed control at 250 g/ha", "setting": "[4]; 250 g ai/ha, scale 0 to 100, read-out: Plant response rating, Johnsongrass", "value": 10, "unit": "%"}, {"measurement": "pest or weed control at 31 g/ha", "setting": "[5]; 31 g ai/ha, read-out: Plant response rating (scale of 0 to 100), Kochia", "value": 5, "unit": "%"}, {"measurement": "pest or weed control at 62 g/ha", "setting": "[5]; 62 g ai/ha, scale 0 to 100 (0 no effect, 100 complete control), read-out: Kochia plant response rating", "value": 30, "unit": "%"}, {"measurement": "pest or weed control at 125 g/ha", "setting": "[5]; 125 g ai/ha, scale 0 to 100 (0 no effect, 100 complete control), read-out: Kochia plant response rating", "value": 50, "unit": "%"}, {"measurement": "pest or weed control at 250 g/ha", "setting": "[5]; 250 g ai/ha, scale 0 to 100, read-out: Plant response rating, Kochia", "value": 85, "unit": "%"}, {"measurement": "pest or weed control at 31 g/ha", "setting": "[6]; 31 g ai/ha, read-out: Plant response rating (scale of 0 to 100), Morningglory", "value": 0, "unit": "%"}, {"measurement": "pest or weed control at 62 g/ha", "setting": "[6]; 62 g ai/ha, scale 0 to 100 (0 no effect, 100 complete control), read-out: Morningglory plant response rating", "value": 50, "unit": "%"}, {"measurement": "pest or weed control at 125 g/ha", "setting": "[6]; 125 g ai/ha, scale 0 to 100 (0 no effect, 100 complete control), read-out: Morningglory plant response rating", "value": 80, "unit": "%"}, {"measurement": "pest or weed control at 250 g/ha", "setting": "[6]; 250 g ai/ha, scale 0 to 100, read-out: Plant response rating, Morningglory", "value": 85, "unit": "%"}, {"measurement": "pest or weed control at 31 g/ha", "setting": "[7]; 31 g ai/ha, read-out: Plant response rating (scale of 0 to 100), Pigweed", "value": 10, "unit": "%"}, {"measurement": "pest or weed control at 62 g/ha", "setting": "[7]; 62 g ai/ha, scale 0 to 100 (0 no effect, 100 complete control), read-out: Pigweed plant response rating", "value": 10, "unit": "%"}, {"measurement": "pest or weed control at 125 g/ha", "setting": "[7]; 125 g ai/ha, scale 0 to 100 (0 no effect, 100 complete control), read-out: Pigweed plant response rating", "value": 20, "unit": "%"}, {"measurement": "pest or weed control at 250 g/ha", "setting": "[7]; 250 g ai/ha, scale 0 to 100, read-out: Plant response rating, Pigweed", "value": 30, "unit": "%"}, {"measurement": "plant injury at 31 g/ha", "setting": "[8]; 31 g ai/ha, read-out: Plant response rating (scale of 0 to 100), Soybean", "value": 10, "unit": "%"}, {"measurement": "plant injury at 62 g/ha", "setting": "[8]; 62 g ai/ha, scale 0 to 100 (0 no effect, 100 complete control), read-out: Soybean plant response rating", "value": 30, "unit": "%"}, {"measurement": "plant injury at 125 g/ha", "setting": "[8]; 125 g ai/ha, scale 0 to 100 (0 no effect, 100 complete control), read-out: Soybean plant response rating", "value": 40, "unit": "%"}, {"measurement": "plant injury at 250 g/ha", "setting": "[8]; 250 g ai/ha, scale 0 to 100, read-out: Plant response rating, Soybean", "value": 70, "unit": "%"}, {"measurement": "pest or weed control at 31 g/ha", "setting": "[9]; 31 g ai/ha, read-out: Plant response rating (scale of 0 to 100), Cupgrass, Woolly", "value": 0, "unit": "%"}, {"measurement": "pest or weed control at 62 g/ha", "setting": "[9]; 62 g ai/ha, scale 0 to 100 (0 no effect, 100 complete control), read-out: Cupgrass, Woolly plant response rating", "value": 0, "unit": "%"}, {"measurement": "pest or weed control at 125 g/ha", "setting": "[9]; 125 g ai/ha, scale 0 to 100 (0 no effect, 100 complete control), read-out: Cupgrass, Woolly plant response rating", "value": 0, "unit": "%"}, {"measurement": "pest or weed control at 250 g/ha", "setting": "[9]; 250 g ai/ha, scale 0 to 100, read-out: Plant response rating, Cupgrass, Woolly", "value": 5, "unit": "%"}, {"measurement": "pest or weed control at 31 g/ha", "setting": "[10]; 31 g ai/ha, read-out: Plant response rating (scale of 0 to 100), Nutsedge, Yellow", "value": 0, "unit": "%"}, {"measurement": "pest or weed control at 62 g/ha", "setting": "[10]; 62 g ai/ha, scale 0 to 100 (0 no effect, 100 complete control), read-out: Nutsedge, Yellow plant response rating", "value": 0, "unit": "%"}, {"measurement": "pest or weed control at 125 g/ha", "setting": "[10]; 125 g ai/ha, scale 0 to 100 (0 no effect, 100 complete control), read-out: Nutsedge, Yellow plant response rating", "value": 0, "unit": "%"}, {"measurement": "pest or weed control at 250 g/ha", "setting": "[10]; 250 g ai/ha, scale 0 to 100, read-out: Plant response rating, Nutsedge, Yellow", "value": 0, "unit": "%"}, {"measurement": "pest or weed control at 31 g/ha", "setting": "[11]; 31 g ai/ha, read-out: Plant response rating (scale of 0 to 100), Chickweed", "value": 0, "unit": "%"}, {"measurement": "pest or weed control at 62 g/ha", "setting": "[11]; 62 g ai/ha, scale 0 to 100 (0 no effect, 100 complete control), read-out: Chickweed plant response rating", "value": 0, "unit": "%"}, {"measurement": "pest or weed control at 125 g/ha", "setting": "[11]; 125 g ai/ha, scale 0 to 100 (0 no effect, 100 complete control), read-out: Chickweed plant response rating", "value": 0, "unit": "%"}, {"measurement": "pest or weed control at 250 g/ha", "setting": "[11]; 250 g ai/ha, scale 0 to 100, read-out: Plant response rating, Chickweed", "value": 10, "unit": "%"}]}
